Experimental data reported in ChEMBL document CHEMBL1143756, “Alpha-substituted N-(4-tert-butylbenzyl)-N'-[4-(methylsulfonylamino)benzyl]thiourea analogues as potent and stereospecific TRPV1 antagonists” (Bioorg Med Chem, 2007).

How the values were obtained:
[1] = target: Transient receptor potential cation channel subfamily V member 1 (Rattus norvegicus) (UniProt O35433); experiment: Agonist activity at rat TRPV1 receptor expressed in CHO cells by Ca2+ uptake assay; format: functional, cell-based
[2] = target: T1, Transient receptor potential cation channel subfamily V member 1 (Rattus norvegicus, UniProt O35433); experiment: Displacement of [3H]RTX from rat TRPV1 receptor expressed in CHO cells; format: cell-based
[3] = target: T1, Transient receptor potential cation channel subfamily V member 1; experiment: Antagonist activity at rat TRPV1 receptor expressed in CHO cells by Ca2+ uptake assay

T1 sequence (O35433 whole entry): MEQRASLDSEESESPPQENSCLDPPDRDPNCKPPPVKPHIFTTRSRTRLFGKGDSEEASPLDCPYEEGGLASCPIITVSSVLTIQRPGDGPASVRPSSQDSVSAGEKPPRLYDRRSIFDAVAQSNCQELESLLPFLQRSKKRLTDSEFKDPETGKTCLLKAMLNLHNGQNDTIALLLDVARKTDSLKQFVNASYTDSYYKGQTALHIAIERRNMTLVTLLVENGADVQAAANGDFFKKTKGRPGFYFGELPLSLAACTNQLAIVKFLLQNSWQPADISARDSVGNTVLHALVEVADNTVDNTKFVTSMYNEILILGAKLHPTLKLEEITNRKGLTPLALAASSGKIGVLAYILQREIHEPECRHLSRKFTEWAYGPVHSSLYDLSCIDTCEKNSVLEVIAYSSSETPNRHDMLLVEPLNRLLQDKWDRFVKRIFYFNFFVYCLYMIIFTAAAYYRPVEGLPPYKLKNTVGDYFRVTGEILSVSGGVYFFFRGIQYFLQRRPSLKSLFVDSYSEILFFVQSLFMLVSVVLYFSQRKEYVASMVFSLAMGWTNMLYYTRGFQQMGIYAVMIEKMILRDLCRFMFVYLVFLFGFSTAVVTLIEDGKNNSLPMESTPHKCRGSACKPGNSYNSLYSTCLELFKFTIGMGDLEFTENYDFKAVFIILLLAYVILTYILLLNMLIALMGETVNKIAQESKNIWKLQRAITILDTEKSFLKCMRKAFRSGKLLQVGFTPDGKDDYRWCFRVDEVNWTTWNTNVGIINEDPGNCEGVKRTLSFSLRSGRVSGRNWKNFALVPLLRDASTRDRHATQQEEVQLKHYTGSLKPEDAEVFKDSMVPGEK
Sequence of Transient receptor potential cation channel subfamily V member 1 (Rattus norvegicus) (O35433 whole entry): as above

SMILES	Activity [1]	Ki [2]	Ki [3]
C[C@H](/N=C(\S)NCc1ccc(C(C)(C)C)cc1)c1ccc(NS(C)(=O)=O)cc1	8%	–	–
C[C@H](NC(=S)NCc1ccc(C(C)(C)C)cc1)c1ccc(NS(C)(=O)=O)cc1	–	3950 nM	–
COc1cc(CNC(=S)NCc2ccc(C(C)(C)C)cc2)ccc1NS(C)(=O)=O	18%	51 nM	–
C[C@@H](NC(=S)NCc1ccc(C(C)(C)C)cc1)c1ccc(NS(C)(=O)=O)c(F)c1	–	–	37 nM
CC(C)(C)c1ccc(CNC(=S)NC(C)(C)c2ccc(NS(C)(=O)=O)cc2)cc1	–	–	1800 nM
CN(C)CCCN1c2ccccc2Sc2ccc(Cl)cc21 [CHLORPROMAZINE]	–	1300 nM	520 nM
C[C@H](NC(=S)NCc1ccc(C(C)(C)C)cc1)c1ccc(NS(C)(=O)=O)c(F)c1	–	2140 nM	2670 nM
CC(NC(=S)NCc1ccc(C(C)(C)C)cc1)c1ccc(NS(C)(=O)=O)cc1 (configuration not stated)	–	59.3 nM	14.7 nM
